US12390423B2 (priority 2019, dated 2025)

Assays:
[1] = tested on: insulin signaling (pAkt-Ser473), MAPK, AMPK; assay: Immunoblotting (pAkt, pERK1/2, pP38, pAMPKα, PGC-1α) and NAO mitochondrial mass in C2C12 myotubes; type: cell-based, mouse; conditions: 0.5 mM palmitate 24 h, 100 nM insulin 30 min, AvoB 25 μM, DCA 1 mM, TRI 25 μM
Method: For all ROS studies, INS-1 (832/13) cells and C2C12 myotubes were treated with or without palmitate and FAO inhibitors for 24 h in low glucose cell culture media as described for the FAO assay. After treatment, cells were trypsinized and re-suspended in PBS containing 5 μM of the fluorescent dye MitoSOX® (Molecular Probes, Invitrogen) and allowed to incubate for 5-15 minutes in a humidified atmosphere containing 5% CO2 at 37° C. Cells were then washed in PBS, placed in a 96 well plate and fluorescence was measured by flow cytometry. ROS was quantified by normalizing the mean fluorescence values of live gated cells to vehicle control. Mitochondrial membrane potential (MMP) in INS-1 (832/13) and C2C12 myotubes was measured using the cationic fluorescent dye JC-1 (Molecular Probes). JC-1 accumulates in the mitochondrial matrix in an MMP dependent manner. JC-1 fluoresces green in the cytosol where it exists as a monomer, after entering the mitochondria JC-1 monomers form J aggregates and fluoresce red, thus the red/green fluorescence ratio is used to determine MMP. After all treatments, cells were washed, trypsinized and re-suspended in PBS containing 1 μM JC-1 and allowed to incubate for 5-10 minutes in a humidified atmosphere containing 5% CO2 at 37° C. Cells were then washed in PBS, placed in a 96 well plate and fluorescence was measured by flow cytometry. MMP was quantified by normalizing the mean fluorescence values of live gated cells to vehicle control. Mitochondrial mass was measured using 10-N-nonyl acridine orange (NAO; Enzo Life Sciences, ENZ-52306), which accumulates in the mitochondria in an MMP-independent manner where it binds to cardiolipin in the inner mitochondrial membrane. Cells were treated, washed and collected as described and incubated with 0.35 μM NAO and green fluorescence was measured using flow cytometry. In all analysis (ROS, MMP and mitochondrial mass), forward vs side scatter plots were gated to exclude debris (e.g., dead cells), as cell death is associated with increased ROS and altered membrane potentials. For all cell culture experiments, after drug treatments cells were washed with chilled phosphate-buffered saline (PBS), and lysed in chilled lysis buffer with 1× protease inhibitor cocktail (Sigma). RIPA lysis buffer (Sigma-Aldrich) was used for INS-1 (832/13) cells and muscle lysis buffer for C2C12 myotubes (20 mM HEPES, 10 mM NaCl, 1.5 mM MgCl2, 1 mM DTT, 20% glycerol, and 0.1% Triton-X100). Cells were scraped, mechanically homogenized using a syringe and centrifuged at 14,000×g for 20 min at 4° C. and the supernatants were collected. For preparation of all gastrocnemius muscle lysates, 10 mg frozen tissue (wet weight) was washed in chilled PBS, placed in a dounce homogenizer, lysed in muscle lysis buffer and centrifuged at 14,000×g for 20 min at 4° C. and the supernatant was collected. Protein content for cell and tissue lysates was measured using the BCA protein assay kit (ThermoFisher) according to manufacturer's protocol. Thirty μg protein lysates were prepared in loading buffer and immunoblotting was performed by heating lysates for 5 minutes at 95° C. and subjecting them to gel electrophoresis on 10% SDS-polyacrylamide gels at 150 V for 75 minutes. Using a semi-dry transfer apparatus (Bio-Rad) the gels were then transferred at 25V for 45 minutes to a PVDF membrane and blocked with 5% BSA (Sigma) in tris-buffered saline-tween (TBS-T) for 1 hour. […]

C2C12 myotubes = assay: Cellular ATP content in C2C12 myotubes; type: cell-based, mouse; conditions: 0.5 mM palmitate 24 h, AVO 25 μM, DCA 1 mM, TRI 25 μM
Method: Total cellular ATP content was determined using the ATP bioluminescent assay kit (Calbiochem, 119107). Briefly, cells were seeded in white walled 96-well plates (1.2×10^4 cells/well for INS-1 and 2×10^4 cells/well for C2C12) and treated for 24 h (C2C12 cells were differentiated for 5 days prior to treatments whereas INS-1 cells were treated 24 h after seeding). After treatment, culture media was removed, and cells were lysed with nucleotide releasing buffer with gentle shaking for 5 min. ATP monitoring enzyme was then added to cell lysates and plates and luminescence was read in a Biotek Synergy HT spectrophotometer (Biotek; Winooski, VT).

INS-1 (832/13) cells [2] = assay: Glucose stimulated insulin secretion (GSIS) in INS-1 (832/13) cells; type: cell-based, rat; conditions: 0.5 mM palmitate 24 h, AvoB 25 μM, ETO 100 μM
Method: To measure glucose stimulated insulin secretion (GSIS) in INS-1(832/13) cells a standard protocol was adopted. […] After treatments were complete, cell media was replaced with KRB (Krebs-Ringer Bicarbonate) buffer. Cells were then challenged with 3 mM glucose for 2 h in KRB buffer after which 500 μL KRB buffer was collected and frozen in −80° C. until analysis. For another 2 h, cells were challenged with 16 mM glucose after which 500 μL KRB was collected and frozen in −80° C. until analysis. The amount of insulin released into the KRB buffer was determined by an ELISA kit (Millipore, Rat/Mouse Insulin Detection kit). Data was normalized for cellular protein content, as determined by the Micro-BCA Protein Assay kit. The glucose-dependent insulin secretory index (GSIS16/3), defined as the ratio between the insulin secretion at 16 mM (stimulatory, surrogate to postprandial glucose levels) and 3 mM (basal, surrogate to fasting glucose levels) glucose was also calculated.

INS-1 (832/13) cells [3] = assay: Cytosolic calcium determination (fluo-3AM) in INS-1 (832/13) cells; type: cell-based, rat; conditions: 0.5 mM palmitate, non-stimulatory glucose, AvoB 25 μM, ETO 100 μM, TMB-8 10 μM
Method: INS-1 (832/13) cells were treated as described for the FAO assays but also with metabolic modulators dichloroacetate (DCA) (1 mM) and trimetazidine (25 μM) as well as 10 μM endoplasmic reticulum calcium blocker 8-(N,N-Diethylamino)-octyl-3,4,5-trimethoxybenzoate HCl (TMB-8) (Sigma Aldrich) or 25 nM cyclosporin (Sigma Aldrich) in the presence of 0.5 mM palmitate/1 mM L-carnitine. Cytosolic calcium was measured in INS-1 (832/13) cells using fluo-3AM (Invitrogen, F1241) charged fluorescent dye that accumulates in the cytosol and emits green fluorescence after binding calcium ions. A stock solution of 10 mM fluo-3AM was diluted to 5 μM in fluo-3AM loading buffer (10 mM 4-(2-hydroxyethyl)-1-piperazineethanesulfonic acid (HEPES), 137 mM NaCl, […], 1 mM Na2HPO4, 5 mM glucose, and 0.5 mM MgCl2 (pH 7.4)]. After treatment, cells were incubated in fluo-3AM loading buffer for 30 min at 37° C. with gentle agitation after which cells were washed twice with PBS, trypsinized and collected for flow cytometry analysis. Cytosolic calcium was quantified by taking the mean green fluorescence values of live gated cells and normalizing to vehicle control.

SMILES	Insulin signaling (insulin stimulated phosphorylation of AKT Ser473) [1]	Total cellular ATP content (C2C12 myotubes)	Glucose stimulated insulin secretion (GSIS) (INS-1 (832/13) cells [2])	Cytosolic Ca2+ (Fluo-3AM) (INS-1 (832/13) cells [3])
COc1ccc(CN2CCNCC2)c(OC)c1OC [trimetazidine, reference compound]	did not exert such effects	did not exert such effects		
CCOC(=O)[C@@]1(CCCCCCOc2ccc(Cl)cc2)CO1 [ETO, etomoxir, reference compound]			GSIS was higher	able to reduce cytosolic Ca^2+
CCN(CC)CCCCCCCCOC(=O)c1cc(OC)c(OC)c(OC)c1.Cl [TMB-8, 8-(N,N-Diethylamino)-octyl-3,4,5-trimethoxybenzoate HCl]				able to reduce cytosolic Ca^2+
